The values that follow are results of earlier work, collected in patent US11376213B2, “Topical pharmaceutical formulation” (Futura Medical Developments Limited, priority 2016, dated 2022).

Structures can show the parent of a compound that is named as a salt.

The conditions of data set [1]: factor by which greater than piroxicam.
Experiment in data set [2]: not given
This is another data set of the same source.

As to `O=C(O)Cc1ccccc1Nc1c(Cl)cccc1Cl` [diclofenac], in data set [1], the “efficacy index (ratio of skin penetration to potency) relative to piroxicam” value was ~10^3. As to `CC(C)Cc1ccc(C(C)C(=O)O)cc1` (centres unmarked) [Ibuprofen, isobutylphenylpropionic acid], the aqueous solubility entry is “extremely low”. Turning to `O=C(O)Cc1ccccc1Nc1c(Cl)cccc1Cl` [sodium salt of diclofenac acid, diclofenac sodium], in data set [2], the “saturated solubility in propylene glycol” value is reported as “approximately 50 % w/w”. With `O=C(O)Cc1ccccc1Nc1c(Cl)cccc1Cl` [diclofenac acid], in data set [2] (polyethylene glycol), the “saturated solubility in polyethylene glycol” value is on record as 11.18 % w/w. Moreover, the “saturated solubility in propylene glycol” value in data set [2] is 1.16 % w/w.
